The record followed here is patent US8119656B2, “Inhibitors of the influenza virus non-structural 1 protein” (The Board of Regents of the University of Texas System, priority 2007, dated 2012).

Experiment [1] deals with influenza virus. Put plainly: Inhibition of virus killing in human bronchial epithelial cells (infection assay). Format: cell-based. As to conditions: purity and concentration verified. The source says: FIG. 7. […] Analogs in the library are related structures which provide structure-activity information. The z score is the compound value minus the experimental mean value divided by the standard deviation of the experimental population.
It is important to note, that with the exception of one compound (8 in FIG. 7), the values shown are from the screening experiments using compounds for which only estimated concentrations and solubilities were available. Inhibitor 8 has been purchased in large quantities from Chemical Diversity Laboratories (San Diego, Calif.) and its purity and concentration verified prior to obtaining the data on inhibition of virus killing in human bronchial epithelial cells. […] It is possible that some of the other compounds will show improvements in potency once pure stocks of known concentration are obtained (see FIG. 7). […] From these 71 inhibitors, 8 different compound families were chosen for further analyses (see FIG. 7).

For experiment [2], the system named is influenza virus (WSN). The class given is cell-based.
For experiment [3], the target named is T1, NS1 protein (Influenza A virus, UniProt P03496).
T1 construct: expressed in transfected cells; host or cells: 293T cells
The class given is cell-based.

Experiment [4] relates to mRNA export block induced by influenza virus infection and mediated by NS1. Format: cell-based, influenza virus (WSN).
Experiment [5] concerns Renilla luciferase.
Experiment [6] has as its system firefly luciferase. The class given is cell-based.

T1 sequence (P03496 whole entry): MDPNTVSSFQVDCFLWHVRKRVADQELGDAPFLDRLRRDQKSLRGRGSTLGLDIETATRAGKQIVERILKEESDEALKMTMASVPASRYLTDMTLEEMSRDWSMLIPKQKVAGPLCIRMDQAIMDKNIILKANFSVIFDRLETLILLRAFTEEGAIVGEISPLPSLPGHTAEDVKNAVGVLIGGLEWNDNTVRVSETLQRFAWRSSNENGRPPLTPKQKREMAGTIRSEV

With `O=C(O)CCCN1C(=O)c2cccc3c([N+](=O)[O-])ccc(c23)C1=O` [Compound 8.0], the “Potency in the infection assay” value in experiment [1] is on record as “most potent in the infection assay”. Moreover, in experiment [2], the “WSN HA titer 24H 24 hr” value is reported as 0.50 and the “WSN HA titer 24H 36 hr” value worked out at 0.50. Further, in experiment [3], the “Activity in the original screen” value was “not one of the most active compounds”.

As for `O=C(O)CCCCCN1C(=O)c2cccc3cccc(c23)C1=O` [Compound 8.1], in experiment [2], the “WSN HA titer 24H 24 hr” value is recorded as 1.00 and the “WSN HA titer 24H 36 hr” value came to 0.50.

Take `O=C(O)CCN1C(=O)c2cccc3c([N+](=O)[O-])ccc(c23)C1=O` [Compound 8.2]: in experiment [2], the “WSN HA titer 24H 24 hr” value is listed as 0.25 and the “WSN HA titer 24H 36 hr” value turned out to be 0.50.

Consider `O=C(O)CCCCCN1C(=O)c2cccc3c(N4CCCCC4)ccc(c23)C1=O` [Compound 8.3], for which, in experiment [2], the “Inhibition of virus growth compared with compound 8” value is “more inhibitory of virus growth”, the “Potency for inhibiting virus growth among analogs of compound 8” value was “most potent compound for inhibiting virus growth”, the “WSN HA titer 24H 24 hr” value amounted to 0.13 and the “WSN HA titer 24H 36 hr” value worked out at 0.13. Moreover, the “Reversal of mRNA export block” value in experiment [4] (MDCK cells infected with WSN, FIG. 10 (10 μM, MOI 0.01, 48 h in FIG. 10A)) is “significantly reverts the mRNA export block”. In experiment [4] (compound at 50 μM, WSN MOI 1, 12 h (FIG. 10B)), the “Reversal of mRNA export blockage” value is “significant reversal of mRNA export blockage”. In experiment [3], the “Inhibition of NS1 protein compared with compound 8” value is listed as “more inhibitory of NS1 protein” and the “Score in the luciferase dependent assay” value is reported as “did not score”. Further, the “Inhibition of Renilla luciferase expression” value in experiment [5] is recorded as “no effect”. For the same compound, the “Inhibition of firefly luciferase expression” value in experiment [6] is listed as “inhibitor of firefly luciferase expression”.

Take `CCN1C(=O)c2cccc3c([N+](=O)[O-])ccc(c23)C1=O` [Compound 8.6]: in experiment [2], the “Inhibition of virus growth compared with compound 8” value is “more inhibitory of virus growth”, the “WSN HA titer 24H 24 hr” value came to 0.13 and the “WSN HA titer 24H 36 hr” value was determined as 0.25. Moreover, the “Inhibition of NS1 protein compared with compound 8” value in experiment [3] was “more inhibitory of NS1 protein”.

For `O=C(O)CCCN1C(=O)c2cccc3cc([N+](=O)[O-])cc(c23)C1=O` [Compound 8.9], in experiment [2], the “WSN HA titer 24H 24 hr” value is reported as 0.50 and the “WSN HA titer 24H 36 hr” value is reported as 0.50.

On to `O=C(O)CCCCCN1C(=O)c2cccc3c([N+](=O)[O-])ccc(c23)C1=O` [Compound 8.10], for which, in experiment [2], the “WSN HA titer 24H 24 hr” value was 0.13 and the “WSN HA titer 24H 36 hr” value was determined as 0.19.

As to `O=C(O)CCN1C(=O)c2cccc3cccc(c23)C1=O` [Compound 8.16], in experiment [2], the “WSN HA titer 24H 24 hr” value amounted to 1.00 and the “WSN HA titer 24H 36 hr” value came to 0.50.
